# In patent US11985975B1, “N-[(2-{[(furan-ylcarbonyl)carbamothioyl]amino }phenyl)carbamothioyl]furan-2-carboxamide as an eco-friendly insecticidal agent against Spodoptera littoralis (boisd.)” (KING FAISAL UNIVERSITY, priority 2023, dated 2024):
# Where two headings read alike, the source gives them in different places.
# Tested on: Spodoptera littoralis larvae (second and fourth instars)
# Assay: Insecticidal bioassay screening (castor leaf dip), laboratory strain of cotton leafworm
# Type: in vivo
# Conditions: for LC90 (mg/L) at 95%: after 72 hrs of treatment; for Toxicity index %: after 72 hrs, reference LC50/compound LC50 x 100; for LC50: Spodoptera littoralis, foliar
# Description: Five concentrations (200, 100, 50, 25, 12.5 ppm) were designed for this synthetic compound and the reference Diflubenzuron compound as the dynamic ingredients based on ppm via diluting the commercial formulation.
# In this experiment, castor leaves are immersed in each of the previously prepared concentrations of the components for 10 seconds and then left to dry for 60 minutes. Larvae of the second and fourth instars of each checked strain are prepared with treated leaves in gauze-covered glass containers for 72 hrs. An untreated control is made in which leaves are dipped in triton x-100 and distilled water only. Then the preserved leaves were removed & fresh, untreated leaves were provided for 72 hours. Three replicates (10 larvae each) were checked for each concentration. Daily inspection was carried out for all treatments and mortality percentages were recorded 3 days (72 hours) after treatment. The average mortality percentage was corrected employing Abbott's formula. The corrected mortality rate for each of the previously synthesized compounds is statistically calculated according to Finney (1970). Through this rate, the corresponding concentration test lines (LDP lines) are assessed.
# [1] = 72 h, read-out: LC50 (mg/L) at 95%, 2nd instar larvae, after 72 hrs of treatment
# [2] = 72 h, read-out: LC50 (mg/L) at 95%, 4th instar larvae, after 72 hrs of treatment
# [3] = against Spodoptera littoralis under laboratory conditions (instar not stated)
smiles,measurement,setting,value
"O=C(NC(=S)Nc1ccccc1NC(=S)NC(=O)c1ccco1)c1ccco1 [Compound 2, N-[(2-{[(furan-ylcarbonyl)carbamothioyl]amino}phenyl)carbamothioyl]furan-2-carboxamide]",LC90 (mg/L) at 95%,2nd instar larvae,7450.5 mg/L
same,Toxicity index %,2nd instar larvae,10.6%
same,LC90 (mg/L) at 95%,4th instar larvae,1837.2 mg/L
same,Toxicity index %,4th instar larvae,14.7%
same,LC50,[1],424 mg/L
same,LC50,[2],976 mg/L
same,LC50,[3],424 mg/L
same,Insecticidal activity (in words),compared with reference insecticide Diflubenzuron,active against Spodoptera littoralis
"O=C(NC(=O)c1c(F)cccc1F)Nc1ccc(Cl)cc1 [Diflubenzuron, reference compound]",LC90 (mg/L) at 95%,2nd instar larvae,520.0 mg/L
same,Toxicity index %,2nd instar larvae,100%
same,LC90 (mg/L) at 95%,4th instar larvae,1540.5 mg/L
same,Toxicity index %,4th instar larvae,100%
same,LC50,[1],45.2 mg/L
same,LC50,[2],144 mg/L
same,LC50,[3],45.2 mg/L
